The assay concerns the target T1, Ode-UNC-29:Ode-UNC-63:Ode-UNC-38 (Oesophagostomum dentatum, UniProt E5KIX9+V5J2B2+V5J336).
T1 construct: co-injected with Haemonchus contortus ancillary factors Hco-ric-3, Hco-unc-50, Hco-unc-74; clones from earlier work of the authors
T1 sequence (V5J2B2 21-497): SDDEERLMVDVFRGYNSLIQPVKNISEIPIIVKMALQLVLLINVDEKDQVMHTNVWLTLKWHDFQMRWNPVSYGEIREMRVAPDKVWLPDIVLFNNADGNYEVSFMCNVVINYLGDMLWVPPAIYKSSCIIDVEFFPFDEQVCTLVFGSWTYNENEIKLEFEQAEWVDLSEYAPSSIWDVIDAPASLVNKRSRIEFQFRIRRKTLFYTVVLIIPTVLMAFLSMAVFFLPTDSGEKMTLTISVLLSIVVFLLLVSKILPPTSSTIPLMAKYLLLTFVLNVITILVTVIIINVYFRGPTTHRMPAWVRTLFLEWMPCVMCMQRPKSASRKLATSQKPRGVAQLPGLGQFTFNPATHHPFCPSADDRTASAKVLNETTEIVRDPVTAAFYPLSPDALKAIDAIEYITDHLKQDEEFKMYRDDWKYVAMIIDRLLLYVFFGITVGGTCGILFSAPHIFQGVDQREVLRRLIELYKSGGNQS
T1 sequence (E5KIX9 22-507): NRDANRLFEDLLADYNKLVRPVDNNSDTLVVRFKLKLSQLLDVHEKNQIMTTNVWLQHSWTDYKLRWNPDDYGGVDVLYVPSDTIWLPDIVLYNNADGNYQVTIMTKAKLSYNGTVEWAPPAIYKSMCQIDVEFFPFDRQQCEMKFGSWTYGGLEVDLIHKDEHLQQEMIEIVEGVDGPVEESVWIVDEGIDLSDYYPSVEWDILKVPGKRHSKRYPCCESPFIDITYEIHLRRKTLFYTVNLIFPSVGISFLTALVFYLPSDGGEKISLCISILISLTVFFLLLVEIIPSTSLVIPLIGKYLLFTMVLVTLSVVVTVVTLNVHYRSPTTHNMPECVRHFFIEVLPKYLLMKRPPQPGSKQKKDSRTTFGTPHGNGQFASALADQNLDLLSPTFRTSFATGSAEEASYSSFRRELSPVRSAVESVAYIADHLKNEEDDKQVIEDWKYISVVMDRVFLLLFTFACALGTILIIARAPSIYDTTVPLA
T1 sequence (V5J336 21-507): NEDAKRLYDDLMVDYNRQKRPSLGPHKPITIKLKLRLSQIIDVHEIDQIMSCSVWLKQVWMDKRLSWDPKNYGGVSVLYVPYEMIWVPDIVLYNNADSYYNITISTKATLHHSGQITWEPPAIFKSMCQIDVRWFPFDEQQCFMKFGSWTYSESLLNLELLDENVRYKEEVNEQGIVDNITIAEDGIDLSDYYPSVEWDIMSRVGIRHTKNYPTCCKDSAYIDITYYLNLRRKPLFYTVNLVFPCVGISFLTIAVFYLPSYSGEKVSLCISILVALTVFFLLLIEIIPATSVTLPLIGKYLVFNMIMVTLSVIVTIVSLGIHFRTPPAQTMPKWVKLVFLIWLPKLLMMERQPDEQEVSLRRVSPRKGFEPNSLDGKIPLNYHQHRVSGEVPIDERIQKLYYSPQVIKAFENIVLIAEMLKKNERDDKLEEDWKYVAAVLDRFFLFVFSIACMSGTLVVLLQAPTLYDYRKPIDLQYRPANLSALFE
Put plainly: two-electrode voltage clamp, Xenopus oocytes, agonist concentration-response, Hill fit. The assay is classed as cell-based. On the technique in general: In two-electrode clamp one electrode senses voltage and the other passes current.

The EC50 is the midpoint of the concentration-response curve.

Structures are written as SMILES.

Regarding `CC(=O)OCC[N+](C)(C)C` [acetylcholine], the EC50 is 13 ± 1.6 µM.
Then `CN1CCCN=C1/C=C/c1cccs1` [pyrantel], with 0.4 µM.

The record behind these values is article PMC4709073, “Curiouser and Curiouser: The Macrocyclic Lactone, Abamectin, Is also a Potent Inhibitor of Pyrantel/Tribendimidine Nicotinic Acetylcholine Receptors of Gastro-Intestinal Worms” (PLoS ONE, 2016).
